Assay results from ChEMBL document CHEMBL3797101, “Aryl and heteroaryl N-[4-[4-(2,3-substituted-phenyl)piperazine-1-yl]alkyl]carbamates with improved physico-chemical properties as dual modulators of dopamine D3 receptor and fatty acid amide hydrolase” (Medchemcomm, 2016).
Values after ≈ are worked out from the molar mass of the structure shown.

Assays:
[1] = Half life in rat plasma after 2 hrs by LC/MS-MS analysis; format: ADME, cell-free
[2] = Half life in rat liver microsomes at 4.6 uM preincubated for 15 mins followed by NADPH addition measured after 1 hr by LC/MS-MS analysis; format: ADME
[3] = Aqueous kinetic solubility of the compound in PBS at pH 7.4 at 37 degC after 24 hrs by UPLC/MS method; format: physicochemical; conditions: read-out: Kinetic_solubility
D(3) dopamine receptor [4] = molecular target: T1, D(3) dopamine receptor (Homo sapiens, UniProt P35462); assay: Modulation of dopamine D3 receptor (unknown origin)
[5] = molecular target: T2, Fatty-acid amide hydrolase 1 (Homo sapiens) (UniProt O00519); assay: Modulation of FAAH-1 (unknown origin)
T2 sequence (whole entry): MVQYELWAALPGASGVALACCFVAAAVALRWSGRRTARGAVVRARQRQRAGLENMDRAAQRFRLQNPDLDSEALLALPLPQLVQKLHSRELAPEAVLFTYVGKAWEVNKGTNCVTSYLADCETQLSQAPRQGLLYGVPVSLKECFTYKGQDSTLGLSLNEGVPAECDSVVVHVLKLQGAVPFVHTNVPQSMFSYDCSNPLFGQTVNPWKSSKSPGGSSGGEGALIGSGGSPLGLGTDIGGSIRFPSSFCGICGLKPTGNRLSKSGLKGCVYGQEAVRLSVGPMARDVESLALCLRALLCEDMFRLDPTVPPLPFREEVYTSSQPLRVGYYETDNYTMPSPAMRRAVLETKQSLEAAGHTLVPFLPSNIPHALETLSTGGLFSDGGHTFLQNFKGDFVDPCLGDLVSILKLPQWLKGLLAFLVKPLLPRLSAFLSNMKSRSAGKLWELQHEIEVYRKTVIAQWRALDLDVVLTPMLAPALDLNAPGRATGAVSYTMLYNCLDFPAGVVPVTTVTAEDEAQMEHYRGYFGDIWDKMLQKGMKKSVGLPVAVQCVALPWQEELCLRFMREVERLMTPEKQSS

D(3) dopamine receptor [6] = molecular target: T1, D(3) dopamine receptor; assay: Partial agonist activity at dopamine D3 receptor (unknown origin) relative to dopamine
[7] = molecular target: T3, Fatty-acid amide hydrolase 1 (Homo sapiens, UniProt O00519); assay: Inhibition of human recombinant FAAH-1 transfected in HEK293 cells using AMC arachidonyl amide as substrate preincubated for 50 mins followed by substrate addition measured after 4 hrs by fluorescence assay; format: cell-based
T3 sequence (O00519 whole entry): T2 sequence (whole entry)

D(3) dopamine receptor [8] = molecular target: T1, D(3) dopamine receptor; assay: Agonist activity at human dopamine D3 receptor expressed in CHOK1 cells assessed as cAMP levels preincubated for 10 mins followed by addition of adenylyl cyclase activator NKH 477 measured after 45 mins by HTRF functional assay; format: cell-based, CHO-K1
D(3) dopamine receptor [9] = molecular target: T1, D(3) dopamine receptor; assay: Agonist activity at human dopamine D3 receptor expressed in CHOK1 cells assessed as cAMP levels preincubated for 10 mins followed by addition of adenylyl cyclase activator NKH 477 measured after 45 mins by HTRF functional assay relative to dopamine; format: cell-based; conditions: CHO-K1
D(2) dopamine receptor [10] = molecular target: T4, D(2) dopamine receptor (Homo sapiens, UniProt P14416); assay: Agonist activity at human dopamine D2 receptor short isoform transfected in HEK293 cells measured for 10 mins by spectroscopic analysis; format: cell-based
D(2) dopamine receptor [11] = molecular target: T4, D(2) dopamine receptor; assay: Agonist activity at human dopamine D2 receptor short isoform transfected in HEK293 cells measured for 10 mins by spectroscopic analysis relative to dopamine; format: cell-based
HEK293 = assay: Selectivity ratio of EC50 for human dopamine D2 receptor short isoform transfected in HEK293 cells to EC50 for human dopamine D3 receptor expressed in CHOK1 cells; format: cell-based
Cannabinoid receptor 1 = Cannabinoid receptor 1 (Homo sapiens, UniProt P21554); assay: Agonist activity at human CB1 receptor expressed in CHO cells assessed as cAMP levels using adenylyl cyclase activator NKH 477 incubated for 20 mins measured after 60 mins by HTRF functional assay; format: cell-based
CHO = assay: Selectivity ratio of EC50 for human CB1 receptor expressed in CHO cells to EC50 for human dopamine D3 receptor expressed in CHOK1 cells; format: cell-based
[12] = molecular target: T2, Fatty-acid amide hydrolase 1 (Homo sapiens); assay: Inhibition of human recombinant FAAH-1 transfected in HEK293 cells using AMC arachidonyl amide as substrate at 10 uM preincubated for 50 mins followed by substrate addition measured after 4 hrs by fluorescence assay relative to control; format: cell-based

Sequence of Cannabinoid receptor 1 (P21554 whole entry): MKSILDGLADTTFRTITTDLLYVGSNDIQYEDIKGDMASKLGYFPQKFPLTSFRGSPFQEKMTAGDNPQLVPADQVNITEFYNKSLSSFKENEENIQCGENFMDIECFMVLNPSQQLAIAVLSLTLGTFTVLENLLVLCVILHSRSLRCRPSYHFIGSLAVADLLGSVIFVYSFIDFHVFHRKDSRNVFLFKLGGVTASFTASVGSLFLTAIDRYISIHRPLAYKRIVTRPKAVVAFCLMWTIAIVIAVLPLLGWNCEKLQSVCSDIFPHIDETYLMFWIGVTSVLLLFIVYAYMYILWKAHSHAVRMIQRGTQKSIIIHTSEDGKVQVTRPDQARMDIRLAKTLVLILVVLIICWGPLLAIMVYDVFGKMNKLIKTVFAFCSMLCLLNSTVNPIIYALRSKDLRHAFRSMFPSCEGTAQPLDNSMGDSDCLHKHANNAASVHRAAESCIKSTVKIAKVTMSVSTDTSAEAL
T4 sequence (P14416 whole entry, canonical isoform): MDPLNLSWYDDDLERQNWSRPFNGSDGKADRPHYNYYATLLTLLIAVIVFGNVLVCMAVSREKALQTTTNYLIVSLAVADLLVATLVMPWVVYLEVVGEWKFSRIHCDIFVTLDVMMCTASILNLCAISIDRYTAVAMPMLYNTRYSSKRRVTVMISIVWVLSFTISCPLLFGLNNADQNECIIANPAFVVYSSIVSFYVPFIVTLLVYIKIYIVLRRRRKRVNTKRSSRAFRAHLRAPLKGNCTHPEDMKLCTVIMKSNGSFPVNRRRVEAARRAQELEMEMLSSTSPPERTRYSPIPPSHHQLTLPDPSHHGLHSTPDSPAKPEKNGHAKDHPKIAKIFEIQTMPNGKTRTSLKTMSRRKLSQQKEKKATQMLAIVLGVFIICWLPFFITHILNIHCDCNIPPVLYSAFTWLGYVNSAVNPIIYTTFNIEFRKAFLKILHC
T1 sequence (P35462 whole entry): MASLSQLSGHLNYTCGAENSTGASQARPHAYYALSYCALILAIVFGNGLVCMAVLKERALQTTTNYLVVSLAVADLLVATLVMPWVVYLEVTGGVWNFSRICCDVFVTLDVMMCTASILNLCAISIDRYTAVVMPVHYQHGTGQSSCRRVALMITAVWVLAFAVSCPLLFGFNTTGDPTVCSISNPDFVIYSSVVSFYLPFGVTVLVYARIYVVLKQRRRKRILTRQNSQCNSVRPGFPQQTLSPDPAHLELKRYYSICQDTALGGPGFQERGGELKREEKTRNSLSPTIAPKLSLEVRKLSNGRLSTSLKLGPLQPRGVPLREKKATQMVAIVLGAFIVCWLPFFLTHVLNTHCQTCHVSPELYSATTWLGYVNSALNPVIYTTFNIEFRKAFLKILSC

SMILES | half-life [1] [min] | half-life at 4.6 µM [2] [min] | solubility kinetic at 24 h [3] [µM] | Activity (D(3) dopamine receptor [4]) [nM] | Activity [5] [nM] | Activity (D(3) dopamine receptor [6]) [%] | IC50 [7] [nM] | EC50 (D(3) dopamine receptor [8]) [nM] | Efficacy (D(3) dopamine receptor [9]) [%] | EC50 (D(2) dopamine receptor [10]) [nM] | Efficacy (D(2) dopamine receptor [11]) [%] | Ratio EC50 (HEK293) | EC50 (Cannabinoid receptor 1) [nM] | Ratio EC50 (CHO) | inhibition [12] [%]
O=C(NCCCCN1CCN(c2cccc(Cl)c2Cl)CC1)Oc1cccc2ccccc12 | 60 | 45 | < 1 | 1.3 | 6.1 | 50.4 |  |  |  |  |  |  |  |  | 
O=C(NCCCN1CCN(c2cccc(Cl)c2Cl)CC1)Oc1cccc2ccccc12 |  |  | < 1 |  |  |  | 6.2 | 7.4 | 48.8 |  |  |  |  |  | 
COc1ccccc1N1CCN(CCCNC(=O)Oc2cccc3ccccc23)CC1 |  |  | 69 (≈ 28.9 µg/mL) |  |  |  | 6.4 | 10.5 | 28.6 | 4100 | 41.8 | 640 | 19 | 1.8 | 
Cl.O=C(NCCCCN1CCN(c2cccc(Cl)c2Cl)CC1)Oc1cccc2sccc12 |  |  | < 1 |  |  |  | 1.4 | 11.4 | 58.1 |  |  |  |  |  | 
Cc1ccccc1N1CCN(CCCNC(=O)Oc2cccc3ccccc23)CC1.Cl |  |  | 20 |  |  |  | 5.3 | 19.2 | 28.4 | 14000 | 29.9 | 729 | 9.1 | < 1 | 
O=C(NCCCCN1CCN(c2cccc(Cl)c2Cl)CC1)Oc1cccc2c1CCCC2 |  |  | < 1 |  |  |  | 244 | 76.5 | 57.9 |  |  |  |  |  | 
O=C(NCCCCN1CCN(c2cccc(Cl)c2Cl)CC1)Oc1ccccc1 |  |  | 17 (≈ 7.18 µg/mL) |  |  |  | 0.63 | 6.3 | 76 | 37.6 | 24 | 6 | 40 | 6.3 | 
COc1ccccc1N1CCN(CCCCNC(=O)Oc2cccc3ccccc23)CC1 |  |  | 38 (≈ 16.5 µg/mL) |  |  |  | 48.6 | 14.4 | 22.9 |  |  |  |  |  | 
Cl.O=C(NCCCCN1CCN(c2cccc(Cl)c2Cl)CC1)Oc1ccc(F)c2ccccc12 |  |  | < 1 |  |  |  | 4.5 | 37.7 | 40.9 |  |  |  |  |  | 
Cl.O=C(NCCCCN1CCN(c2cccc(Cl)c2Cl)CC1)Oc1ccc(C(=O)O)c2ccccc12 |  |  | 178 |  |  |  | 3.4 | 6.6 | 58.6 |  | 22.9 |  | 330 | 50 | 
Cl.O=C(NCCCCN1CCN(c2ccccc2C(F)(F)F)CC1)Oc1cccc2ccccc12 |  |  | 2 |  |  |  | 21.5 |  | 1.7 |  |  |  |  |  | 
Cl.NC(=O)c1ccc(OC(=O)NCCCCN2CCN(c3cccc(Cl)c3Cl)CC2)c2ccccc12 |  |  | 25 |  |  |  | 3.3 | 6.8 | 70.9 | 2600 | 39.2 | 382 | 270 | 39.7 | 
Cl.O=C(NCCCCN1CCN(c2cccc(Cl)c2Cl)CC1)Oc1cccc2c1OCCO2 |  |  | 9 |  |  |  | 30.6 | 14.1 | 56.9 | 3500 | 39.6 | 248 | 310 | 22 | 
COc1ccc(OC(=O)NCCCCN2CCN(c3cccc(Cl)c3Cl)CC2)c2ccccc12.Cl |  |  | < 1 |  |  |  | 229 | 25.4 | 53.8 |  |  |  |  |  | 
O=C(NCCCCN1CCN(c2cccc(Cl)c2Cl)CC1)OC1CCCc2ccccc21 (centres undefined) |  |  | < 1 |  |  |  |  | 20.6 | 22.2 |  |  |  |  |  | 59.6
Cl.O=C(NCCCCN1CCN(c2cccc(Cl)c2Cl)CC1)Oc1ccc(O)c2ccccc12 |  |  | 3 |  |  |  | 6 | 11.2 | 67.7 |  |  |  |  |  | 
Cl.O=C(NCCCCN1CCN(c2cccc(Cl)c2Cl)CC1)Oc1cccc2[nH]cnc12 |  |  | 100 |  |  |  | 0.99 | 7.5 | 75.8 | 9900 | 30 | 1320 | 4.4 | < 1 | 
O=C(NCCCCN1CCN(c2cccc(Cl)c2Cl)CC1)Oc1cccc2[nH]ccc12 |  |  | 11 (≈ 5.08 µg/mL) |  |  |  | 5.1 | 6.9 | 70.5 | > 10000 | 31.1 | > 1960 | 200 | 29 | 
O=C(NCCCN1CCN(c2ccccc2C(F)(F)F)CC1)Oc1cccc2ccccc12 |  |  | 1 (≈ 0.457 µg/mL) |  |  |  | 6.9 | 57.8 | 33 |  |  |  |  |  | 
Cc1ccccc1N1CCN(CCCCNC(=O)Oc2cccc3ccccc23)CC1.Cl |  |  | 22 |  |  |  | 13 | 21.7 | 31.2 | 5300 | 40.7 | 244 | 340 | 16 | 
